From patent publication EP3539977B1, “ENZYMES WITH CHLOROGENIC ACID ESTERASE ACTIVITY AND FERULOYL ESTERASE ACTIVITY” (SternEnzym GmbH & Co. KG, priority 2014, dated 2016)
Where “and” joins values, the source holds several entries; their conditions need not be identical. Equal values may be shown once.

Target: T1, UmChlE (Mycosarcoma maydis, UniProt A0A060S684, P492L)
T1 construct: purification of the chlorogenic acid esterase UmChlE from culture supernatant of U. maydis was accomplished by three complementary separation steps; made in house; host or cells: Ustilago maydis itself (native producer), culture supernatant; Q Sepharose FF, preparative IEF, polyamide column
Assay: Kinetic parameters of UmChlE from initial hydrolysis rates
Assay type: biochemical, Ustilago maydis
Conditions: 0.005 - 1 mM substrate, 60 min, 37 °C, pH 7.5
Method: Km and vmax values were calculated with non-linear regression using SigmaPlot 10.0 (Systat Software Inc., Chicago, USA). Blanks were carried out for all assays using water instead of enzyme. For calculation of kcat the molecular mass was determined using denaturing SDS-PAGE.
Kinetic properties were determined from initial hydrolysis rates for the most preferred substrates chlorogenic acid, MFA and MpCA. […] Consequently, the catalytic efficiency (kca/Km), a good indicator for enzyme efficiency and specificity, was better for chlorogenic acid than for the two synthetic substrates.

Compound | Km [µM] | Km (listed as MpCA)
O=C(/C=C/c1ccc(O)c(O)c1)O[C@@H]1C[C@](O)(C(=O)O)C[C@@H](O)[C@H]1O [chlorogenic acid] | 19.6 | –
COC(=O)/C=C/c1ccc(O)c(OC)c1 [methyl ferulate] | 102 | –
COC(=O)/C=C/c1ccc(O)cc1 [methyl p-coumarate] | – | 64.1 µM and 64 µM
